Assay results taken from patent US8658638B2, “Mineralocorticoid receptor antagonist and methods of use” (priority 2009, dated 2014).

Columns and labels:
[1] = biological target: T1, human PR (progesterone receptor) (Homo sapiens, UniProt P06401); assay: Steroid nuclear hormone receptor binding assay, PR; conditions: [3H]-methyltrienolone, HEK293 lysate overexpressing human PR
T1 construct: expressed in transfected cells; host or cells: HEK293 (293-PR lysate)
T1 sequence (P06401 1-933): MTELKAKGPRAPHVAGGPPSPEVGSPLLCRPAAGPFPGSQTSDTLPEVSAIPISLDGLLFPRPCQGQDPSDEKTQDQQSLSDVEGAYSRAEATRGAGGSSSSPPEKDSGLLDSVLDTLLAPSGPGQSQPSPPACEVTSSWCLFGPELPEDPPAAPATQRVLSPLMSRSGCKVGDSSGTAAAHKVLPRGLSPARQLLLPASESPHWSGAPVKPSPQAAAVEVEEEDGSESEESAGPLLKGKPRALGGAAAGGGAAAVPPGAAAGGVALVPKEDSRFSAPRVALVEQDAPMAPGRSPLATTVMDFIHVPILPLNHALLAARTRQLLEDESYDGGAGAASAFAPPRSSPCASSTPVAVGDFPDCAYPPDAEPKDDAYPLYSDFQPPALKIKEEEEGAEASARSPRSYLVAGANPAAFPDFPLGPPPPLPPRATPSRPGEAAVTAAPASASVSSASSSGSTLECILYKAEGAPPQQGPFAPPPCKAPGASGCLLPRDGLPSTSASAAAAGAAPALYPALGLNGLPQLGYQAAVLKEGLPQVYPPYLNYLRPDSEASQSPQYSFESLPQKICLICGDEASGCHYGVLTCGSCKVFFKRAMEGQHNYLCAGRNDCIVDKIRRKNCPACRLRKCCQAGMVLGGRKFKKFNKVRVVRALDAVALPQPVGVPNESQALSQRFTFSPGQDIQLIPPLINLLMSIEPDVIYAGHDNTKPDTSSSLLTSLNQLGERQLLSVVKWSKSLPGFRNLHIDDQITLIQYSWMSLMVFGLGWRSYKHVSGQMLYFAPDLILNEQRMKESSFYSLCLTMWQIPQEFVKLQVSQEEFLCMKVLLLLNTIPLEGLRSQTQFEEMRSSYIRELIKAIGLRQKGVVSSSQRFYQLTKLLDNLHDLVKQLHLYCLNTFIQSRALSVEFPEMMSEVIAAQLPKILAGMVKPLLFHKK
Protocol: Cell lysates from human embryonic kidney HEK293 cells overexpressing human MR (mineralocorticoid receptor), GR (glucocorticoid receptor), AR (androgen receptor), or PR (progesterone receptor) are used for receptor-ligand competition binding assays to determine Ki values.
Briefly, steroid receptor competition binding assays are run in a buffer containing 20 mM HEPES buffer (pH=7.6), 0.2 mM EDTA, 75 mM NaCl, 1.5 mM MgCl2, 20% glycerol, 20 mM sodium molybdate, 0.2 mM DTT (dithiothreitol), 20 μg/mL aprotinin and 20 μg/mL leupeptin (assay buffer). Typically, steroid receptor binding assays include radio-labeled ligands, such as 0.25 nM [^3H]-aldosterone for MR binding, 0.7 nM [^3H]-dexamethasone for GR binding, 0.36 nM [^3H]-methyltrienolone for AR binding, and 0.29 nM [^3H]-methyltrienolone for PR binding, and either 20 μg 293-MR lysate, 20 μg 293-GR lysate, 22 μg 293-AR lysate, or 40 μg 293-PR lysate per well. Assays are typically run in 96-well format. Competing test compounds are added at various concentrations ranging from about 0.01 nM to 10 μM. Non-specific binding is determined in the presence of 500 nM aldosterone for MR binding, 500 nM dexamethasone for GR binding, or 500 nM methyltrienolone for AR and PR binding. […] After an incubation of 2 hours, plates are read in a Wallac Microbeta counter. […]

[2] = tested on: uni-nephrectomized Sprague Dawley rats; assay: In vivo model of aldosterone mediated hypertension; conditions: orally once daily 1-30 mg/kg/day x 14 days, rat
Protocol: Male uni-nephrectomized Sprague Dawley rats (240-280 g) are housed individually with ad lib house water and rodent 5001 diet for one week. After acclimation, animals are implanted with Alzet pumps to subcutaneously deliver 0.25 μg/h of aldosterone at 2.5 μl/h for up to 28 days, and maintained on a diet containing 6% NaCl and drinking water containing 0.3% KCl throughout the duration of the study. Radiotelemetry devices are also implanted to monitor arterial blood pressure. For example, signals from each animal are sampled every 10 minutes throughout the study. The mean (±SEM) of all values collected over a twenty four hour period represent the mean daily arterial pressure for each animal.
On the day following pump implantation, test compound in a vehicle comprising 1% medium viscosity sodium carboxy methylcellulose/0.25% polysorbate 80/0.05% Antifoam 1510 ™, or vehicle alone, is then administered by once daily oral gavage (10 mL/kg).

[3] = tested on: adrenalectomized Sprague Dawley rats; assay: In vivo assay of electrolyte modulation; conditions: 30 mg/kg p.o., aldosterone 3 μg/kg s.c., urine collected 5 hours after dose, rat
Protocol: Male Sprague Dawley rats (240-280 g) are adrenalectomized then maintained on 5001 rodent chow and 1% NaCl drinking solution for 6 days after surgery. Animals are then fasted overnight and 1% saline drinking water is replaced with house water ad lib. The morning of the study, fasted animals are randomized to treatment on the basis of fasted body weight. Control animals (e.g. those that receive no aldosterone or test compound) are given 10 mL/kg of test compound vehicle comprising 0.5% CMC/0.25% polysorbate 80/2.7% NaCl by oral gavage, and 1 mL/kg of aldosterone vehicle (0.01% DMSO/water) by subcutaneous injection. Vehicle animals are given the same test compound vehicle by oral gavage and aldosterone 3 μg/kg, s.c. Test substances are suspended in the carboxy methylcellulose/NaCl vehicle. The test compound treatment groups receive test substance suspended in the carboxy methylcellulose/NaCl vehicle and aldosterone 3 μg/kg s.c. Immediately after dosing, animals are placed in metabolic racks with ad lib access to house water. Urine samples are collected 5 hours after dose administration and electrolyte excretion is assayed. Data are presented as log Na/K excretion ratio or % of Na/K ratio with respect to adrenalectomized vehicle treated animals. […]

Ki [1]: ~478 nM
increase of urinary Na/K excretion ratio compared to vehicle treated animals [3]: about 30%
SMILES: O=c1[nH]c2cc(/C=C3\c4ccccc4COc4cc(F)ccc43)ccc2n1[C@@H]1C[C@@H]2COCCN2C1 [Compound (I), 5-((E)-(3-fluorodibenzo[b,e]oxepin-11(6H)-ylidene)methyl)-1-((7R,8aR)-hexahydro-1H-pyrrolo[2,1-c][1,4]oxazin-7-yl)-1H-benzo[d]imidazol-2(3H)-one]
effect on the hypertensive effects of aldosterone in the presence of salt compared to vehicle [2]: dose dependently reduced the hypertensive effects of aldosterone
